Test results taken from article PMC5999181, “UMP kinase activity is involved in proper chloroplast development in rice” (Photosynthesis Research, 2018).

Target: T1, YL2 (YL2-His) (Oryza sativa, UniProt Q5JJV9)
T1 construct: gene Os01g0965400; full-length cDNA (351 residues including putative 58-residue transit peptide) in pET44a, E. coli BL21, Ni-NTA
T1 sequence (Q5JJV9 1-351): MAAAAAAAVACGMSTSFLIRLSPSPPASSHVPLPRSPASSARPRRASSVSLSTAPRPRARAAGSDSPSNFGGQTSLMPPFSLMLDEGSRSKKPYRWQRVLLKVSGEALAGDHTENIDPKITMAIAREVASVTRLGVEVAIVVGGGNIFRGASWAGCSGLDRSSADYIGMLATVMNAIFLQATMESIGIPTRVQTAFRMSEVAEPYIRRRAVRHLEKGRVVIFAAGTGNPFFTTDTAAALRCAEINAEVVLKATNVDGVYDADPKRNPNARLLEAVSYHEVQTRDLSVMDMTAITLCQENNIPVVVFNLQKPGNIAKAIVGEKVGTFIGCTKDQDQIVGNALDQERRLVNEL
Experiment: Kinase-Glo luminescence (residual ATP)
Type: biochemical
Conditions: 0.2 mM UMP, 10 μM ATP, 10 mM MgCl2, 1 mM DTT, 50 mM Tris-HCl pH 7.5, 30 °C, 0.5 h

Compound | Kinase-Glo luminescence (residual ATP)
Nc1ncnc2c1ncn2[C@@H]1O[C@H](COP(=O)(O)OP(=O)(O)OP(=O)(O)O)[C@@H](O)[C@H]1O [ATP] | decreased levels of RLU, reflecting the amount of residual ATP remaining after the UMP kinase reaction
O=c1ccn([C@@H]2O[C@H](COP(=O)(O)O)[C@@H](O)[C@H]2O)c(=O)[nH]1 [UMP] | confirming that YL2 has prokaryotic UMP kinase activity in vitro
